Series [1] relates to hepatic OATP and MRP2 activity. On the set-up: method as in PMID 23440558. Conditions: cited from earlier work.
Series [2] concerns hepatic OATP and MRP2 activity. The following applies: rat; lowest doses: DTZ 10 mg/kg s.c., CsA 0.01 mg/kg i.v.
Procedure: [^99mTc]mebrofenin scintigraphy was performed using a clinical SPECT-CT camera (Symbia®, Siemens, Knoxville, TN, USA) with a Low Energy High Resolution (LEHR) collimator. In each session, 3 rats were placed in a row on the scanner bed and catheters were inserted in the caudal vein. Experiments were performed for control conditions or after injection of the different transporter inhibitors. RIF (40 mg/kg intravenously, i.v.) was injected immediately before [^99mTc]mebrofenin as previously described [33]. […] Rats were injected with [^99mTc]mebrofenin (39 ± 4 MBq, i.v.) followed by dynamic planar acquisitions. Acquisitions were terminated by a X-ray CT scan.
Images were analyzed with PMOD® software (version 3.9, PMOD Technologies LLC). Regions of interest (ROI) were manually drawn on the liver, intestine, heart (= image-derived blood curve) and urinary bladder. Corresponding TACs were generated by plotting the mean radioactivity amount in each ROI normalized to the injected dose in each animal (cps/MBq) versus time.
For the next series, the system named is rats. The following applies: rat, in vivo.
The target of a further series is human MRP2 (Homo sapiens, UniProt Q92887). Put plainly: cell-based. The method, then: Stably transfected MDCK-II-MRP2 cells overexpressing human MRP2 were a kind gift from A. Schinkel ([…], The Netherlands). Cells were cultured in a controlled atmosphere at 37 °C, 5% CO2. The culture medium was composed of DMEM Glutamax (Dulbecco’s Modified Eagle Medium, 4.5 g/L D-glucose, pyruvate) supplemented with 10% fetal bovine serum and 1% antibiotics (penicillin and streptomycin 5000 U/mL). MRP2-mediated transport was assessed using the calcein-AM assay. Cells were seeded in 24-well plates (30,000 cells per well) in 500 μL of culture medium. […] After 30 min at 37 °C, the incubation buffer was removed and cell monolayers were rapidly washed with 300 μL of ice-cold buffer (Dulbecco’s phosphate buffered saline + CaCl2 + MgCl2). Cells were then lysed by 10 min of incubation with 500 μL of NaOH (10 mM). […] For each inhibitor, uptake data were normalized to describe the extent of inhibition from 0 to maximal (100%) inhibition.
Chain of human MRP2 (Q92887 whole entry): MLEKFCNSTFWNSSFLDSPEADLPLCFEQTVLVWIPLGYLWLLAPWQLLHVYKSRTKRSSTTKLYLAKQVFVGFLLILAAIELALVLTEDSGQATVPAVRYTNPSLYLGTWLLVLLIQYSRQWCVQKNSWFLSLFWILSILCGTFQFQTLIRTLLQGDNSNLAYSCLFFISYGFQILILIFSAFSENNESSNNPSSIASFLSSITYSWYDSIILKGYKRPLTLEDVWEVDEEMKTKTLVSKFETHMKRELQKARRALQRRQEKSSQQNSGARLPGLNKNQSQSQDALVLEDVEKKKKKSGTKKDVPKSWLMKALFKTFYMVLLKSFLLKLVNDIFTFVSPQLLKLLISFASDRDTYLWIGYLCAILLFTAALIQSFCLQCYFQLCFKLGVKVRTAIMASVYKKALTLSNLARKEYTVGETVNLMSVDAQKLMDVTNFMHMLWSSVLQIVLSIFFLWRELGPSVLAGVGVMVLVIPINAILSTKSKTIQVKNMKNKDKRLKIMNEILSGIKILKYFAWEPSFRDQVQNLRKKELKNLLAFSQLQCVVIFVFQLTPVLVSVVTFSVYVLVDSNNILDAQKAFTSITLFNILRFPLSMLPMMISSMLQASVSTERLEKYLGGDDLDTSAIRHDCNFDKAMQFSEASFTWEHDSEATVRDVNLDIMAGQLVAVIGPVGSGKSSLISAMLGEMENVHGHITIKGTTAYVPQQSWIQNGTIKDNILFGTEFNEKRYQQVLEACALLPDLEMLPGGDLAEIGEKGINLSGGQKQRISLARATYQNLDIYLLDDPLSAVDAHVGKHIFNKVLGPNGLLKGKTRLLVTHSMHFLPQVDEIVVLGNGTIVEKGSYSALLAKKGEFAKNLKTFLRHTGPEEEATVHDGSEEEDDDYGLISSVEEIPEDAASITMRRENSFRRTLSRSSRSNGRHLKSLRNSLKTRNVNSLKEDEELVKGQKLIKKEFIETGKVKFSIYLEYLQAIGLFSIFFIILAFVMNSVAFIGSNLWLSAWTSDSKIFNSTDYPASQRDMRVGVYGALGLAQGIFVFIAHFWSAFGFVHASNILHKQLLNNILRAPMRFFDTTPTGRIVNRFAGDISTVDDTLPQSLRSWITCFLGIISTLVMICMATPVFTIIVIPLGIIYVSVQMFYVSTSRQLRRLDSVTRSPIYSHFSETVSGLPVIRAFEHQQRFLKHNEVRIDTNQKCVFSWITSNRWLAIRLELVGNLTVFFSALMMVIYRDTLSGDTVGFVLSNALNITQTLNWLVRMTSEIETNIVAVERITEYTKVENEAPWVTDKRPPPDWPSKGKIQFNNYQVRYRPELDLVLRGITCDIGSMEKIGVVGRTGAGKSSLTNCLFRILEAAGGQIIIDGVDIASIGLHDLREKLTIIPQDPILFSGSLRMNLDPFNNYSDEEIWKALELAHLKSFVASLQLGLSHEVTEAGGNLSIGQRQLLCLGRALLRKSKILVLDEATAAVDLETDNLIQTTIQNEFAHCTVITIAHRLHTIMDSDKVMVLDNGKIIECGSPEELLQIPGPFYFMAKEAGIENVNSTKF

Setting [3] is: mice, lowest tested dose 12.5 mg/kg i.v. followed by 3.12 mg/kg intraperitoneal.

Consider three molecules from paper PMC7355955, “Validation of Pharmacological Protocols for Targeted Inhibition of Canalicular MRP2 Activity in Hepatocytes Using [^99mTc]mebrofenin Imaging in Rats” (Pharmaceutics, 2020).

Where two headings read alike, the source gives them in different places.

`Cc1cc(C)c(NC(=O)CN(CC(=O)[O-])CC(=O)[O-])c(C)c1Br.Cc1cc(C)c(NC(=O)CN(CC(=O)[O-])CC(=O)[O-])c(C)c1Br.[99Tc+4]` [[^99mTc]mebrofenin]: in series [1] (MRP2-deficient mice), the “fold decrease in AUCRbile/liver with MRP2-deficiency” value was ~ 10 fold.

For the molecule `COc1ccc([C@@H]2Sc3ccccc3N(CCN(C)C)C(=O)[C@@H]2OC(C)=O)cc1` [DTZ, Diltiazem], the “effect on initial liver uptake (AUCRliver/blood 0–3 min) of [99mTc]mebrofenin” value in series [2] is “did not affect”. For the same molecule, in the series with rats, the “tolerance of i.v. doses higher than 3 mg/kg” value was “poor tolerance”. The “outcome of intravenous injection” value in the series with rats (iv, 40 mg/kg) is given as “lethal”. The molecule further registered an IC50 on human MRP2 of 4.4 µM.

Consider `CO[C@H]1/C=C/O[C@@]2(C)Oc3c(C)c(O)c4c(O)c(c(/C=N/N5CCN(C)CC5)c(O)c4c3C2=O)NC(=O)/C(C)=C\C=C\[C@H](C)[C@H](O)[C@@H](C)[C@@H](O)[C@@H](C)[C@H](OC(C)=O)[C@@H]1C` [RIF, rifampicin], for which the IC50 against human MRP2 stood at 210 µM. Moreover, the “concentration achieving full MRP2 inhibition” value at human MRP2 (MDCK-II-MRP2 cells, calcein-AM assay) is reported as over 500 µM. In addition, the “change in AUCRbile/liver of [99mTc]mebrofenin (biliary excretion)” value in series [1] (mice, higher doses of RIF) is recorded as −94%; in series [1] (setting [3]), −25%. For the same molecule, the “effect on liver uptake of [99mTc]mebrofenin” value in series [1] (setting [3]) was “did not impact”.
